Data taken from PubChem BioAssay AID1963847 (Molecular Pharmacology Branch, DTP, NCI, 2024).

Tested on: 415267-285-R-J2-PDC complex spheroid viability
Assay: Anticancer human tumor 415267-285-R-J2-PDC patient-derived breast carcinoma cell line growth inhibition [POLQ]
Details: for IC50: curve of first compound; for viability, T/C: stronger effect = lower value
How it was run: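 Complex spheroid viability model combining PDC tumour cells with endothelial (HUVEC) and MSC stromal cells. Novobiocin, ART-558 or RP6685 were tested singly and in combination with standard and investigational anticancer drugs. Each was titrated in half-log steps from near clinical Cmax, or from 10 microM where Cmax was unknown.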

[1] = second compound 0.0316 µM, first compound 0.0316 µM
[2] = second compound 0.0316 µM, first compound 0.1 µM
[3] = second compound 0.0316 µM, first compound 0.316 µM
[4] = second compound 0.0316 µM, first compound 1 µM
[5] = second compound 0.0316 µM, first compound 3.16 µM
[6] = second compound 0.0316 µM, first compound 10 µM
[7] = second compound 0.1 µM, first compound 0.0316 µM
[8] = second compound 0.1 µM, first compound 0.1 µM
[9] = second compound 0.1 µM, first compound 0.316 µM
[10] = second compound 0.1 µM, first compound 1 µM
[11] = second compound 0.1 µM, first compound 3.16 µM
[12] = second compound 0.1 µM, first compound 10 µM
[13] = second compound 0.316 µM, first compound 0.0316 µM
[14] = second compound 0.316 µM, first compound 0.1 µM
[15] = second compound 0.316 µM, first compound 0.316 µM
[16] = second compound 0.316 µM, first compound 1 µM
[17] = second compound 0.316 µM, first compound 3.16 µM
[18] = second compound 0.316 µM, first compound 10 µM
[19] = second compound 1 µM, first compound 0.0316 µM
[20] = second compound 1 µM, first compound 0.1 µM
[21] = second compound 1 µM, first compound 0.316 µM
[22] = second compound 1 µM, first compound 1 µM
[23] = second compound 1 µM, first compound 3.16 µM
[24] = second compound 1 µM, first compound 10 µM
[25] = second compound 3.16 µM, first compound 0.0316 µM
[26] = second compound 3.16 µM, first compound 0.1 µM
[27] = second compound 3.16 µM, first compound 0.316 µM
[28] = second compound 3.16 µM, first compound 1 µM
[29] = second compound 3.16 µM, first compound 3.16 µM
[30] = second compound 3.16 µM, first compound 10 µM
[31] = second compound 10 µM, first compound 0.0316 µM
[32] = second compound 10 µM, first compound 0.1 µM
[33] = second compound 10 µM, first compound 0.316 µM
[34] = second compound 10 µM, first compound 1 µM
[35] = second compound 10 µM, first compound 3.16 µM
[36] = second compound 10 µM, first compound 10 µM
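Further: spheroids exposed to compounds for one week before readout.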
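Wherever viability, T/C is given: luminescence used as stand-in measure of viable cells; 100% = DMSO vehicle control viability.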

CCCS(=O)(=O)Nc1ccc(F)c(C(=O)c2c[nH]c3ncc(-c4ccc(Cl)cc4)cc23)c1F + COC1C(OC(N)=O)C(O)C(Oc2ccc3c(O)c(NC(=O)c4ccc(O)c(CC=C(C)C)c4)c(=O)oc3c2C)OC1(C)C
IC50 (second compound 0.0316 µM): > 10 µM
IC50 (second compound 0.1 µM): > 10 µM
IC50 (second compound 0.316 µM): > 10 µM
IC50 (second compound 1 µM): > 10 µM
IC50 (second compound 3.16 µM): > 10 µM
IC50 (second compound 10 µM): > 10 µM
viability, T/C [1]: 123%
viability, T/C [2]: 102%
viability, T/C [3]: 94.5%
viability, T/C [4]: 89%
viability, T/C [5]: 110%
viability, T/C [6]: 66.4%
viability, T/C [7]: 103%
viability, T/C [8]: 100%
viability, T/C [9]: 97.3%
viability, T/C [10]: 101%
viability, T/C [11]: 111%
viability, T/C [12]: 66.5%
viability, T/C [13]: 101%
viability, T/C [14]: 105%
viability, T/C [15]: 99%
viability, T/C [16]: 104%
viability, T/C [17]: 92.4%
viability, T/C [18]: 70.9%
viability, T/C [19]: 103%
viability, T/C [20]: 106%
viability, T/C [21]: 94%
viability, T/C [22]: 94.8%
viability, T/C [23]: 92.6%
viability, T/C [24]: 64.7%
viability, T/C [25]: 109%
viability, T/C [26]: 96.6%
viability, T/C [27]: 90.2%
viability, T/C [28]: 95.2%
viability, T/C [29]: 101%
viability, T/C [30]: 60.5%
viability, T/C [31]: 116%
viability, T/C [32]: 106%
viability, T/C [33]: 97.8%
viability, T/C [34]: 91.4%
viability, T/C [35]: 93.2%
viability, T/C [36]: 88.4%

CNCc1ccc(-c2[nH]c3cc(F)cc4c3c2CCNC4=O)cc1 + Nc1ccc(C#CCN(C(=O)Cc2ncc(C(F)(F)F)cc2C(F)(F)F)c2ccc(F)cc2)nn1
IC50 (second compound 0.0316 µM): > 10 µM
IC50 (second compound 0.1 µM): > 10 µM
IC50 (second compound 0.316 µM): > 10 µM
IC50 (second compound 1 µM): > 10 µM
IC50 (second compound 3.16 µM): > 10 µM
IC50 (second compound 10 µM): > 10 µM
viability, T/C [1]: 98.9%
viability, T/C [2]: 107%
viability, T/C [3]: 91.1%
viability, T/C [4]: 84.6%
viability, T/C [5]: 91.9%
viability, T/C [6]: 103%
viability, T/C [7]: 89.7%
viability, T/C [8]: 105%
viability, T/C [9]: 93.2%
viability, T/C [10]: 87.9%
viability, T/C [11]: 101%
viability, T/C [12]: 102%
viability, T/C [13]: 98.9%
viability, T/C [14]: 93.2%
viability, T/C [15]: 91.4%
viability, T/C [16]: 106%
viability, T/C [17]: 94.4%
viability, T/C [18]: 108%
viability, T/C [19]: 97.3%
viability, T/C [20]: 98.7%
viability, T/C [21]: 92.9%
viability, T/C [22]: 98.6%
viability, T/C [23]: 106%
viability, T/C [24]: 118%
viability, T/C [25]: 91.1%
viability, T/C [26]: 100%
viability, T/C [27]: 94%
viability, T/C [28]: 96.5%
viability, T/C [29]: 109%
viability, T/C [30]: 107%
viability, T/C [31]: 101%
viability, T/C [32]: 97.6%
viability, T/C [33]: 105%
viability, T/C [34]: 105%
viability, T/C [35]: 113%
viability, T/C [36]: 110%

CCCS(=O)(=O)Nc1ccc(F)c(C(=O)c2c[nH]c3ncc(-c4ccc(Cl)cc4)cc23)c1F + Nc1ccc(C#CCN(C(=O)Cc2ncc(C(F)(F)F)cc2C(F)(F)F)c2ccc(F)cc2)nn1
IC50 (second compound 0.0316 µM): > 10 µM
IC50 (second compound 0.1 µM): > 10 µM
IC50 (second compound 0.316 µM): > 10 µM
IC50 (second compound 1 µM): > 10 µM
IC50 (second compound 3.16 µM): > 10 µM
IC50 (second compound 10 µM): > 10 µM
viability, T/C [1]: 92%
viability, T/C [2]: 111%
viability, T/C [3]: 102%
viability, T/C [4]: 90.8%
viability, T/C [5]: 90.6%
viability, T/C [6]: 89.6%
viability, T/C [7]: 117%
viability, T/C [8]: 105%
viability, T/C [9]: 91.1%
viability, T/C [10]: 107%
viability, T/C [11]: 109%
viability, T/C [12]: 90.3%
viability, T/C [13]: 114%
viability, T/C [14]: 109%
viability, T/C [15]: 108%
viability, T/C [16]: 95.2%
viability, T/C [17]: 96.2%
viability, T/C [18]: 89.2%
viability, T/C [19]: 110%
viability, T/C [20]: 107%
viability, T/C [21]: 105%
viability, T/C [22]: 100%
viability, T/C [23]: 105%
viability, T/C [24]: 82.3%
viability, T/C [25]: 107%
viability, T/C [26]: 112%
viability, T/C [27]: 107%
viability, T/C [28]: 104%
viability, T/C [29]: 94.2%
viability, T/C [30]: 92.9%
viability, T/C [31]: 95.5%
viability, T/C [32]: 105%
viability, T/C [33]: 104%
viability, T/C [34]: 98.4%
viability, T/C [35]: 104%
viability, T/C [36]: 90.8%
